Values belong to the molecule of their own block, whether it stands above or below them.
Experiments:
[1] = test system: L. monocytogenes strain BL1 (ΔpdxST::spc); assay: Growth of Listeria monocytogenes ΔpdxST::spc mutant BL1 with B6 vitamers; format: cell-based
Protocol: The resulting plasmid, pBB1212, was introduced into E. coli strain DW1030 containing conjugative plasmid pRK231.7, a broad host range plasmid of the IncP incompatibility group. pBB1212 was transferred from strain DW1030 (pBB1212) into L. monocytogenes cells by conjugation [Trieu-Cuot, 1987] at the temperature (30°) permissive for replication of pBB1212. The ΔpdxST::spc mutants, formed due to allelic exchange resulting from pBB1212 plasmid integration into the chromosome at the non-permissive temperature (41°) and excision at the permissive temperature, were obtained by screening colonies that lost the plasmid marker (chloramphenicol-resistance) and had retained resistance to spectinomycin. Replacement of the chromosomal pdxST locus by the ΔpdxST::spc allele in strain BL1 was confirmed by comparing the sizes of PCR fragments obtained by use of the wild-type and mutant pdxST chromosomal loci as templates.
These traits of the L. monocytogenes mutant are similar to those observed herein with the corresponding B. subtilis mutant.

[2] = test system: B. subtilis strain BB2267 (ΔpdxS ΔpdxZ::spc); assay: Viability and growth of double pdxS pdxZ null mutant BB2267 with PLP precursors; format: cell-based, Bacillus subtilis; conditions: for Viability of double mutant pdxS pdxZ (BB2267): DS nutrient broth or glucose-ammonium TSS medium
Source text: Double pdxS pdxZ and pdxT pdxZ null mutants, defective both in de novo and salvage pathways of PLP synthesis, were obtained by introducing the pdxZ mutation into the chromosome of the pdxS or pdxT mutant cells by transformation.
Viability of cells of strain BB2295 carrying both pdxS and pdxZ mutations was also obtained in the absence of exogenous pyridoxal in the presence of xylose, by conditionally restoring the de novo pathway of PLP synthesis with a xylose-inducible form of the pdxS gene at an ectopic location, i.e., located elsewhere on the chromosome. These and similarly constructed conditional lethal strains can be used for vaccine development, to overcome possible lethality to the bacteria during culture of cells carrying double pdxS and pdxZ or double pdxT and pdxZ mutations.

[3] = test system: Bacillus circulans pdxT mutant; conditions: addition of pyridoxine; cited from earlier work
[4] = test system: B. subtilis strain BB2253 (ΔpdxS); assay: Growth of B. subtilis pdxS (yaaD) null mutant BB2253 with supplements; format: cell-based, Bacillus subtilis
Protocol: (§1) Bacterial strains, plasmids and culture media. B. subtilis strains were grown at 37° C. in TSS minimal medium with 0.5% glucose as the carbon source and 0.2% glutamate or NH4Cl as nitrogen source, in LB broth [Miller, 1972], or in DS nutrient broth medium [Fouet, 1990]. The same media with addition of agar were used for growth of bacteria on plates. LB broth or LB agar was used for growth of Escherichia coli strains. The following antibiotic concentrations were used as appropriate: chloramphenicol, 2.5 μg/ml; neomycin, 2.5-5 μg/ml; phleomycin, 0.25 μg/ml; spectinomycin, 50 μg/ml; or a combination of erythromycin, 0.5 μg/ml, and lincomycin, 12.5 μg/ml, for B. subtilis strains; ampicillin, 50-100 μg/ml; kanamycin, 25 μg/ml; spectinomycin, 50 μg/ml; or chloramphenicol, 10 μg/ml, for E. coli strains.
Construction of yaaD and yaaE null mutants. A deletion mutation within gene yaaD was created by cutting out the 606-bp fragment starting at the AatII site of pBB1181 (FIG. 2) and religating the remaining fragment after filling in its ends (the deletion endpoint, as determined by sequencing, was determined to be beyond the HindIII site, designed for this construct). In the resulting plasmid, pBB1185 (FIG. 2), the deletion was found not to alter the reading frame ofyaaD. pBB1218, a truncated version of pBB1185 (FIG. 2), was introduced by a single-crossover, homologous recombination event into the chromosome of strain SMY, selecting transformants for neomycin resistance. […] After growth of cells of the […] Pdx^− strain in the absence of neomycin, a Neos Pdx^− derivative was isolated. In this strain it was observed that the integrated pBB1218 had been excised from the chromosome and lost. Replacement of the wild-type yaaD gene by the ΔyaaD allele in strain BB2253 and excision of pBB1218 was confirmed by sizing PCR fragments generated from the yaaD locus and by probing for the loss of vector sequences.
Poor ability to utilize PN has been observed for uncharacterized B. subtilis mutants that appeared to require B6 vitamers for growth [Pflug, 1978]. B. subtilis cells apparently lack the pdxH-like gene and the corresponding pyridoxine 5′-phosphate oxidase activity [Pflug, 1983] required for conversion of pyridoxine to PLP.

[5] = test system: G. stearothermophilus PdxT-His6 protein
[6] = test system: B. subtilis strain BB2279 (wild-type); assay: Growth rate of wild-type B. subtilis strain BB2279 carrying pdxS-lacZ; format: cell-based, Bacillus subtilis
Protocol: as §1
No effect of addition of excess pyridoxal (up to 1 mM) was observed on expression or on growth rate. Further, a moderate activation of expression (about 3-4-fold) was observed as a result of B6 limitation, for example, by growth of apdxT mutant in LB broth. This effect was not observed or was much less pronounced for the pdxT mutant using LB broth supplemented with excess PL or NH4Cl (FIG. 6), or in a wild type strain. […]

[7] = test system: pdxS-lacZ fusion; assay: Expression of pdxS-lacZ fusion (β-galactosidase activity); format: cell-based, Bacillus subtilis; conditions: for β-Galactosidase activity: NH4Cl 10 mM, PL 100 μM, glucose-minimal medium
Source text: Construction of transcriptional pdxS-lacZ (yaaD-lacZ) and pdxT-lacZ (yaaE-lacZ) fusions. The 1.35-kb BamHI-EcoRI fragment containing the entire intragenic region between dacA and pdxS, the entire pdxS gene, and the 5′-end of the pdxT gene (FIG. 2), was cut out from the PCR product generated using primers oBB120 and oBB121 and was cloned between the corresponding sites of pHK23 to construct pBB1254 (pdxST-lacZ; FIG. 2). Plasmid pHK23 containing an erythromycin resistance gene was derived from pLG103 [Belitsky et al., 2002, the entire contents of which are hereby incorporated by reference herein]. To construct plasmid pBB1259 with apdxS-lacZ fusion (FIG. 2), a 0.50-kb HindIII-EcoRI fragment containing the 3′-end of the pdxS gene and the 5′-end of thepdxT gene, was cut out of pBB1254, and the plasmid was blunt-ended and religated. To construct plasmid pBB1262 with a pdxT-lacZ fusion (FIG. 2), a 0.43-kb BamHI-BseRI fragment, containing the pdxS promoter and the 5′-part of the pdxS gene, was cut out of pBB1254, and the plasmid was blunt-ended and religated. Strains BB2277, 2279, and 2285 carrying thepdx-lacZ transcriptional fusions integrated at the amyE locus were isolated after transforming strain SMY with pBB1254, 1259, and 1262, respectively, selecting for resistance to erythromycin and screening for loss both of α-amylase production (Amy) and vector sequences as indications of a double crossover, homologous recombination event. The Amy phenotype was assayed using colonies grown overnight on Tryptose Blood Agar Base (Difco)-0.2% starch plates [Fouet, 1990].
Activity of β-galactosidase was determined as described previously [Belitsky, 1995]. Specific activities are expressed in Miller units (1000×OD420/min·ml·OD600) [Miller, 1972].
ApdxS-lacZ transcriptional fusion (plasmid pBB1259; FIG. 2) was constructed as described in Materials and Methods herein, and was integrated at the ectopic amyE locus of the B. subtilis chromosome (strain BB2279).
No effect of addition of excess pyridoxal (up to 1 mM) was observed on expression or on growth rate. Further, a moderate activation of expression (about 3-4-fold) was observed as a result of B6 limitation, for example, by growth of apdxT mutant in LB broth. This effect was not observed or was much less pronounced for the pdxT mutant using LB broth supplemented with excess PL or NH4Cl (FIG. 6), or in a wild type strain. Further, a 2-3-fold decrease in β-galactosidase activity was observed inpdxT mutant cells grown in TSS-glucose mediume with limiting concentrations of ammonium salts, and this decrease in pdxS-lacZ expression was prevented by the presence of PL (Table 5).

[8] = test system: B. subtilis pdxT mutant (strains BB2256, BB2290); assay: Growth of B. subtilis pdxT (yaaE) null mutant with supplements; format: cell-based, Bacillus subtilis
Protocol: as §1
A deletion-insertion mutation within the yaaE gene was constructed by replacing a 135-bp SphI-EcoRI fragment of pBB1213 (FIG. 2) with a 1.4-kb SphI-EcoRI ble cassette determining resistance to phleomycin, excised from pJPM136 [Belitsky, 1998]. The orientation of the ble gene in the resulting plasmid pBB1217 (ΔyaaE::ble; FIG. 2) coincided with that of the yaaE gene. Plasmid pBB1217 was introduced into B. subtilis SMY, and Phlr NeoS transformants arising from double crossover homologous recombination events were selected. Replacement of the chromosomal yaaE gene by the ΔyaaE::ble allele in strain BB2256 was confirmed by comparing sizes of PCR fragments from each of the wild-type and the mutant yaaE chromosomal loci.

[9] = target: T1, wild-type B. subtilis PdxS protein (Bacillus subtilis, UniProt P37527 2-294); assay: co-purification on a Ni2+-affinity column from E. coli co-expressing both proteins (0.5 M NaCl, 0.4 M imidazole), SDS-PAGE
T1 construct: Co-expressed with PdxT-His6 in E. coli; also called YaaD; unmodified PdxS
T1 sequence (looked up): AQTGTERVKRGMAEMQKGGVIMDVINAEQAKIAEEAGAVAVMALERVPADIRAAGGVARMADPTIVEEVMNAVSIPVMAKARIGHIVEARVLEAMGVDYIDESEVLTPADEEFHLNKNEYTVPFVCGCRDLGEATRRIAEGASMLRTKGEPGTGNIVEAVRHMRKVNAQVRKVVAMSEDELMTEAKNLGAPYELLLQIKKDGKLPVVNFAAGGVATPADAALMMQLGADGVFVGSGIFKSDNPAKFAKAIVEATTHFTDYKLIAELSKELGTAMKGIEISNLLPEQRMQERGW
Protocol: pBAD derivatives were introduced into E. coli LMG194 (ara⁻) [Guzman, 1995] cells by transformation. The PdxS and/or PdxT proteins were induced in L-broth cultures (A₆₀₀=0.25−0.4) by addition of 0.2% L-arabinose and incubation for four hours. Cells were pelleted, were washed in 50 mM tris-Cl (pH 8.0)-5% glycerol and were disrupted by sonication in modified Novagen binding buffer (20 mM tris-Cl (pH 7.9)-500 mM NaCl-5 mM imidazole-5% glycerol) plus 1 mM phenylmethylsulfonyl fluoride and 0.1% Nonidet P-40. The sonicate was clarified by low speed centrifugation, and the supernatant was purified using a 2 ml Ni²⁺-column (Novagen) as described by the manufacturer. Buffers containing increasing concentrations of imidazole, from 30 mM to 1 M, were initially used for elution, and 485 mM and 385 mM imidazole were found suitable for elution of PdxS and PdxT proteins, respectively.
E. coli strains overproducing each of the wild-type version of the B. subtilis PdxS protein and the His₆-tagged version of PdxT were constructed, and were used for purification of the PdxT-His₆ protein by Ni²⁺-affinity chromatography.

[10] = strain BB2279, up to 1 mM pyridoxal
[11] = isoleucine 500 μg/ml, with or without pyridoxine

Molecule: Cc1ncc(CO)c(CO)c1O [pyridoxine]
Restoration of growth of strain BL1 ([1]; 100 μM pyridoxine): not at all
Viability of double mutant pdxS pdxZ (BB2267) ([2]; 200 μM pyridoxine): non-viable
Remediation of growth defect of B. circulans pdxT mutant [3]: not remediated
Restoration of growth of strain BB2253 ([4]; 200 μM pyridoxine): only partially restored

Molecule: Cc1ncc(COP(=O)(O)O)c(C=O)c1O [PLP, Pyridoxal 5′-phosphate]
Growth of strain BB2253 in the presence of PLP [4]: Poor growth

Molecule: G. stearothermophilus PdxS containing a His6-tag at its C-terminus
glutaminase activity [5]: It was found that the G. stearothermophilus PdxST complex has glutaminase activity

Molecule: Cc1ncc(CO)c(CN)c1O [Pyridoxamine]
Effectiveness for growth of the mutant compared with pyridoxal ([4]; strain BB2253): several-fold less effective

Molecule: Cc1ncc(CO)c(C=O)c1O [pyridoxal]
Restoration of growth of strain BL1 ([1]; 1 μM pyridoxal): fully restored
Growth rate ([6]; BB2279 wild-type, NH4Cl 10 mM, PL 100 μM, glucose-minimal medium): 60 min
Effect of excess pyridoxal on growth rate [6, 10]: No effect
β-Galactosidase activity ([7]; BB2279 wild-type): 190.4 Miller units
β-Galactosidase activity ([7]; BB2290 pdxT): 142.4 Miller units
Effect of PL on the 2-3-fold decrease in pdxS-lacZ expression in pdxT mutant cells ([7]; TSS-glucose medium, limiting ammonium salts): prevented
Effect of excess pyridoxal on pdxS-lacZ expression [7, 10]: No effect
Growth and viability of double mutant pdxS pdxZ ([2]; 1 mM pyridoxal): Growth and viability
Pyridoxal concentration needed by the double mutant relative to that required for full growth of the pdxS mutant ([2]; 1 mM versus 1 μM): 1000 fold
Viability of double mutant pdxS pdxZ (BB2267) ([2]; 1 μM pyridoxal): non-viable
Growth rate ([8]; BB2290 pdxT, NH4Cl 10 mM, PL 100 μM, glucose-minimal medium): 60 min
Growth rate of strain BB2256 in the presence of PL ([8]; minimal and rich media): restored to that of the wild type cell
Growth of B. subtilis ΔpdxS ([4]; FIG. 3A, 0.01 μM pyridoxal): no growth observed
Minimal concentration of pyridoxal supporting growth of B. subtilis ΔpdxS ([4]; FIG. 3A, growth rate a function of PL concentration up to 10 μM): 0.03 µM
Growth defects of strain BB2253 in rich media on addition of pyridoxal ([4]; LB-broth, brain heart infusion medium or DS medium): relieved
Restoration of growth of strain BB2253 ([4]; minimal media, 1 μM pyridoxal): fully restored

Molecule: CC[C@H](C)[C@H](N)C(=O)O [isoleucine]
Effect on growth of the pdxT mutant [8, 11]: No effect
Effect on growth of the pdxS mutant [4, 11]: No effect

binding result [9]: binds
B1: His6-tagged version of B. subtilis PdxT (enzyme, Bacillus subtilis)
chain: MLTIGVLGLQGAVREHIHAIEACGAAGLVVKRPEQLNEVDGLILPGGESTTMRRLIDTYQFMEPLREFAAQGKPMFGTCAGLIILAKEIAGSDNPHLGLLNVVVERNSFGRQVDSFEADLTIKGLDEPFTGVFIRAPHILEAGENVEVLSEHNGRIVAAKQGQFLGCSFHPELTEDHRVTQLFVEMVEEYKQKALVHHHHHH
notes: Overproduced in E. coli from pBB1252 (with PdxS) or pBB1256 (alone) and purified on a Ni2+ column; also called PdxT-His6; PdxT-H6
